The assay has as its target T1, P2X purinoceptor 7 (Homo sapiens, UniProt Q99572).
T1 sequence (Q99572 whole entry): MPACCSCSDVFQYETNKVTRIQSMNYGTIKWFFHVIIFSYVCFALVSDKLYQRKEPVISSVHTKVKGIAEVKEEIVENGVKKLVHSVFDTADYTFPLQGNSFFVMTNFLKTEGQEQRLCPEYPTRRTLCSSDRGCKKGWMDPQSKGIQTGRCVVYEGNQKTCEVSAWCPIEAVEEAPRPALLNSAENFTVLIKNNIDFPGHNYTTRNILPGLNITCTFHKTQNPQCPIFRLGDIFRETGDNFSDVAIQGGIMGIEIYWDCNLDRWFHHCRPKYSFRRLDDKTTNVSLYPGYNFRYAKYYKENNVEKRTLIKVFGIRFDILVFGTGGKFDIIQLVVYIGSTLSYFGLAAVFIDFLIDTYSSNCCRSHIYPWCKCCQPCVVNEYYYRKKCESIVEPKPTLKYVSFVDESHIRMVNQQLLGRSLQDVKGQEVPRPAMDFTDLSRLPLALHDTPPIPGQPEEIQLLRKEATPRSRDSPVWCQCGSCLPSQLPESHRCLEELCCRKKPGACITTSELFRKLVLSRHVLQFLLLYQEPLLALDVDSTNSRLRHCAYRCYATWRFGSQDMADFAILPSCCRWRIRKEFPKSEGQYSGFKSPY
As to the kind of experiment: Pharmacological Assay: 1. […] Incubate the plate at 37° C. in 5% CO2 for 1 h.4. […] Test compounds were prepared at 100× the test concentration in DMSO by serial dilution with Biomek-FX liquid handling instrument. 33× diluted compound solutions in assay buffer were prepared in intermediate compound plate with Biomek-NX liquid handling instrument. A further 3× dilution occurred in below steps 6 and 7.6. Add 20 microL of 33× diluted compound solutions into each well and leave the plate for 10 min under the dark at room temperature.7. Measure activity by FDSS as follows:Set the assay plate on the stacker of FDSS.Start the detection of fluorescence intensity at 540 nm by 480 nm exicitation.After 30 seconds, add 20 microL of assay buffer containing 240 microM BzATP (final concentration 80 microM).

Regarding `O=C(NCc1ccc(C(F)(F)F)cc1Cl)[C@]1(F)CC[C@H](O)c2ncccc21`, the concentration for half-maximal inhibition (IC50) was < 50 nM.
Then `NC(=O)CC1CCC(C(=O)NCc2cccc(C(F)(F)F)c2Cl)c2cccnc21` (configuration not stated), with < 50 nM.

(Values after ChEMBL document CHEMBL5728597, “Tetrahydroquinoline derivatives as P2X7 receptor antagonists” (2021).)
